“And” between values parts separate entries of the source, which are not always exact repeats. Equal values may be shown once. The source made the active and inactive calls. How the calls were made is not given here.
System: rodent lifetime carcinogenesis bioassay, tumor incidence TD50
Assay: chronic cancer bioassays in animals – CPDB, compiled studies (AID 1745844)

Question: With `O=C1CCc2ccccc2O1` as the compound, how does the TD50 (mouse, strain B6C3F1, females, by gavage, site: all sites, lesion: hemangioma + hemangiosarcoma, dosed 103 weeks, study length 104 weeks) read?
Answer: 4810 mg/kg/day

Question: What about the TD50 (mouse, strain B6C3F1, females, by gavage, site: all sites, lesion: hemangiosarcoma, dosed 103 weeks, study length 104 weeks) of the same compound?
Answer: 6140 mg/kg/day

Question: And the TD50 (mouse, strain B6C3F1, females, by gavage, site: any site (literature study), lesion: several types, types named in the paper, dosed 103 weeks, study length 104 weeks)?
Answer: 541 mg/kg/day

Question: And the TD50 (mouse, strain B6C3F1, females, by gavage, site: liver, lesion: hepatocellular adenoma + hepatoblastoma + hepatocellular carcinoma, dosed 103 weeks, study length 104 weeks)?
Answer: 723 mg/kg/day

Question: What about the TD50 (mouse, strain B6C3F1, females, by gavage, site: liver, lesion: hepatocellular adenoma + hepatocellular carcinoma, dosed 103 weeks, study length 104 weeks) of the same compound?
Answer: 723 mg/kg/day

Question: And the TD50 (mouse, strain B6C3F1, females, by gavage, site: liver, lesion: hepatocellular adenoma, dosed 103 weeks, study length 104 weeks)?
Answer: 790 mg/kg/day

Question: And the TD50 (mouse, strain B6C3F1, females, by gavage, site: lung, lesion: alveolar/bronchiolar adenoma + alveolar/bronchiolar carcinoma, dosed 103 weeks, study length 104 weeks)?
Answer: 96100 mg/kg/day

Question: What about the TD50 (mouse, strain B6C3F1, males, by gavage, site: all sites, lesion: histiocytic sarcoma + malignant lymphoma, histiocytic type + malignant lymphoma, lymphocytic type + malignant lymphoma, dosed 103 weeks, study length 104 weeks) of the same compound?
Answer: 3320 mg/kg/day

Question: What about the TD50 (mouse, strain B6C3F1, males, by gavage, site: all sites, lesion: malignant lymphoma, histiocytic type + malignant lymphoma, mixed type + malignant lymphoma, lymphocytic type + malignant lymph, dosed 103 weeks, study length 104 weeks) of the same compound?
Answer: 3780 mg/kg/day (inactive)

Question: And the TD50 (mouse, strain B6C3F1, males, by gavage, site: any site (literature study), lesion: several types, types named in the paper, dosed 103 weeks, study length 104 weeks)?
Answer: 1400 mg/kg/day

Question: And the TD50 (mouse, strain B6C3F1, males, by gavage, site: liver, lesion: hepatocellular adenoma + hepatoblastoma + hepatocellular carcinoma, dosed 103 weeks, study length 104 weeks)?
Answer: 2890 mg/kg/day

Question: What about the TD50 (mouse, strain B6C3F1, males, by gavage, site: lung, lesion: alveolar/bronchiolar adenoma + alveolar/bronchiolar carcinoma, dosed 103 weeks, study length 104 weeks) of the same compound?
Answer: 3260 mg/kg/day

Question: And the TD50 (mouse, strain B6C3F1, males, by gavage, site: lung, lesion: alveolar/bronchiolar adenoma, dosed 103 weeks, study length 104 weeks)?
Answer: 596 mg/kg/day

Question: And the TD50 (rat, strain Fischer 344, females, by gavage, site: adrenal medulla, lesion: pheochromocytoma benign, bilateral + pheochromocytoma, benign, dosed 103 weeks, study length 104 weeks)?
Answer: 538 mg/kg/day (inactive)

Question: What about the TD50 (rat, strain Fischer 344, females, by gavage, site: any site (literature study), lesion: several types, types named in the paper, dosed 103 weeks, study length 104 weeks) of the same compound?
Answer: 3180 mg/kg/day

Question: And the TD50 (rat, strain Fischer 344, males, by gavage, site: any site (literature study), lesion: several types, types named in the paper, dosed 38 weeks, study length 104 weeks)?
Answer: 1370 mg/kg/day

Question: What about the TD50 (rat, strain Fischer 344, males, by gavage, site: any site (literature study), lesion: several types, types named in the paper, dosed 64 weeks, study length 104 weeks) of the same compound?
Answer: 186 mg/kg/day

Question: What about the TD50 (rat, strain Fischer 344, males, by gavage, site: any site (literature study), lesion: several types, types named in the paper, dosed 103 weeks, study length 104 weeks) of the same compound?
Answer: 143 mg/kg/day

Question: And the TD50 (rat, strain Fischer 344, males, by gavage, site: kidney, lesion: transitional-cell carcinoma, dosed 103 weeks, study length 104 weeks)?
Answer: 11800 mg/kg/day

Question: What about the TD50 (rat, strain Fischer 344, males, by gavage, site: kidney, lesion: tubule adenoma, dosed 38 weeks, study length 104 weeks) of the same compound?
Answer: 310 mg/kg/day

Question: And the TD50 (rat, strain Fischer 344, males, by gavage, site: kidney, lesion: tubule adenoma, dosed 64 weeks, study length 104 weeks)?
Answer: 408 mg/kg/day

Question: What about the TD50 (rat, strain Fischer 344, males, by gavage, site: kidney, lesion: tubule adenoma, dosed 103 weeks, study length 104 weeks) of the same compound?
Answer: 3870 mg/kg/day and 2970 mg/kg/day

Question: And the TD50 (rat, strain Fischer 344, males, by gavage, site: liver, lesion: hepatocellular adenoma + hepatoblastoma + hepatocellular carcinoma, dosed 38 weeks, study length 104 weeks)?
Answer: 819 mg/kg/day

Question: And the TD50 (rat, strain Fischer 344, males, by gavage, site: liver, lesion: hepatocellular adenoma + hepatoblastoma + hepatocellular carcinoma, dosed 103 weeks, study length 104 weeks)?
Answer: 1380 mg/kg/day

Question: And the TD50 (rat, strain Fischer 344, males, by gavage, site: skin, lesion: basal-cell adenoma + keratoacanthoma + squamous-cell papilloma, dosed 64 weeks, study length 104 weeks)?
Answer: 258 mg/kg/day

Question: And the TD50 (rat, strain Fischer 344, males, by gavage, site: skin, lesion: basal-cell adenoma, dosed 64 weeks, study length 104 weeks)?
Answer: 378 mg/kg/day

Question: And the TD50 (rat, strain Fischer 344, males, by gavage, site: skin, lesion: fibroma, dosed 64 weeks, study length 104 weeks)?
Answer: 403 mg/kg/day

Question: And the TD50 (rat, strain Fischer 344, males, by gavage, site: testis, lesion: interstitial-cell adenoma, dosed 64 weeks, study length 104 weeks)?
Answer: 51.7 mg/kg/day

Question: What about the TD50 (rat, strain Fischer 344, males, by gavage, site: testis, lesion: interstitial-cell adenoma, dosed 103 weeks, study length 104 weeks) of the same compound?
Answer: 70.6 mg/kg/day

Question: What does the source list for `NC(N)=Nc1nc(CSCCNc2nsnc2N)cs1`?
Answer: TD50 (rat, strain Charles River CD (Sprague-Dawley), females, by gavage, site: gastric mucosa, lesion: carcinoid tumor, malignant, dosed 105 weeks, study length 105 weeks): 6270 mg/kg/day; TD50 (rat, strain Charles River CD (Sprague-Dawley), males, by gavage, site: gastric mucosa, lesion: carcinoid tumor, malignant, dosed 105 weeks, study length 105 weeks): 4140 mg/kg/day

Question: `CC(=O)Nc1cccc2c1Cc1ccccc1-2` was tested. Which TD50 (rat, strain Buffalo, females, in feed, site: adrenal gland, lesion: carcinoma, dosed 47 weeks, study length 88 weeks) did it give?
Answer: 54.8 mg/kg/day

Question: And the TD50 (rat, strain Buffalo, females, in feed, site: all sites, lesion: leukemia, indeterminate type, dosed 47 weeks, study length 88 weeks)?
Answer: 54.8 mg/kg/day

Question: What about the TD50 (rat, strain Buffalo, females, in feed, site: ovary, lesion: granulosa-cell carcinoma, dosed 47 weeks, study length 88 weeks) of the same compound?
Answer: 54.8 mg/kg/day

Question: What about the TD50 (rat, strain Buffalo, females, in feed, site: pituitary gland, lesion: adenoma, dosed 47 weeks, study length 88 weeks) of the same compound?
Answer: 43.5 mg/kg/day

Question: What about the TD50 (rat, strain Buffalo, females, in feed, site: uterus, lesion: carcinosarcoma, dosed 47 weeks, study length 88 weeks) of the same compound?
Answer: 54.8 mg/kg/day
